Measurements: patent publication US20240000074A1, “LOW DRIFT, RAINFASTNESS, HIGH SPREADING, HIGH UPTAKE AND ULV TANK MIX ADJUVANT FORMULATION” (BAYER AKTIENGESELLSCHAFT, priority 2020, published 2024)

Tested on: Apple leaf cuticles
Test: Apple cuticle penetration test (SOFU, simulation of foliar uptake)
Type: in vitro ADME
Settings: Spray volume 650 l/ha; no additives
Excerpt: The cuticle penetration test is a further developed and adapted version of the test method SOFU (simulation of foliar uptake) originally described by Schonherr and Baur (Schonherr, J., Baur, P. (1996), Effects of temperature, surfactants and other adjuvants on rates of uptake of organic compounds. In: The plant cuticle—an integrated functional approach, 134-155. Kerstiens, G. (ed.), BIOS Scientific publisher, Oxford); it is well suited for systematic and mechanistic studies on the effects of formulations, adjuvants and solvents on the penetration of agrochemicals.
Apple leaf cuticles were isolated from leaves taken from trees growing in an orchard as described by Schönherr and Riederer (Schönherr, J., Riederer, M. (1986), Plant cuticles sorb lipophilic compounds during enzymatic isolation. Plant Cell Environ. 9, 459-466). Only the astomatous cuticular membranes of the upper leaf surface lacking stomatal pores were obtained. Discs having diameters of 18 mm were punched out of the leaves and infiltrated with an enzymatic solution of pectinase and cellulase. […] After storage for about four weeks the permeability of the cuticles reaches a constant level and the cuticular membranes are ready for the use in the penetration test. […]
An autosampler took aliquots of the acceptor in regular intervals and the content of active ingredient is determined by HPLC (DAD or MS). […]

Compound	Penetration rate of spirotetramate After 48 hours	Penetration rate of tebuconazole After 24 hours
CCOC(=O)OC1=C(c2cc(C)ccc2C)C(=O)N[C@]12CC[C@@H](OC)CC2 [spirotetramate]	0%	–
CC(C)(C)C(O)(CCc1ccc(Cl)cc1)Cn1cncn1 (centres unmarked) [tebuconazole]	–	4%
